Data published in paper PMC11479946, “Coupling enzymatic activity and gating in an ancient TRPM chanzyme and its molecular evolution” (Nature Structural & Molecular Biology, 2024).

Experiments:
[1] = biological target: T1, srTRPM2 (Salpingoeca rosetta, UniProt F2UB89); test: HPLC fluorescence of etheno-AMP, Michaelis-Menten fit; type: biochemical; settings: 10 mM MgCl2 final, TBS-GDN, 25 °C; buckle helix truncated, borders not given
T1 construct: gene PTSG_05449; full length; N-terminal TwinStrepII-His8-eGFP tag (thrombin-cleaved for enzyme assays and nanodiscs); expressed in tsA201 cells; homotetramer, GDN detergent or nanodisc
T1 sequence (F2UB89 entry or part of it): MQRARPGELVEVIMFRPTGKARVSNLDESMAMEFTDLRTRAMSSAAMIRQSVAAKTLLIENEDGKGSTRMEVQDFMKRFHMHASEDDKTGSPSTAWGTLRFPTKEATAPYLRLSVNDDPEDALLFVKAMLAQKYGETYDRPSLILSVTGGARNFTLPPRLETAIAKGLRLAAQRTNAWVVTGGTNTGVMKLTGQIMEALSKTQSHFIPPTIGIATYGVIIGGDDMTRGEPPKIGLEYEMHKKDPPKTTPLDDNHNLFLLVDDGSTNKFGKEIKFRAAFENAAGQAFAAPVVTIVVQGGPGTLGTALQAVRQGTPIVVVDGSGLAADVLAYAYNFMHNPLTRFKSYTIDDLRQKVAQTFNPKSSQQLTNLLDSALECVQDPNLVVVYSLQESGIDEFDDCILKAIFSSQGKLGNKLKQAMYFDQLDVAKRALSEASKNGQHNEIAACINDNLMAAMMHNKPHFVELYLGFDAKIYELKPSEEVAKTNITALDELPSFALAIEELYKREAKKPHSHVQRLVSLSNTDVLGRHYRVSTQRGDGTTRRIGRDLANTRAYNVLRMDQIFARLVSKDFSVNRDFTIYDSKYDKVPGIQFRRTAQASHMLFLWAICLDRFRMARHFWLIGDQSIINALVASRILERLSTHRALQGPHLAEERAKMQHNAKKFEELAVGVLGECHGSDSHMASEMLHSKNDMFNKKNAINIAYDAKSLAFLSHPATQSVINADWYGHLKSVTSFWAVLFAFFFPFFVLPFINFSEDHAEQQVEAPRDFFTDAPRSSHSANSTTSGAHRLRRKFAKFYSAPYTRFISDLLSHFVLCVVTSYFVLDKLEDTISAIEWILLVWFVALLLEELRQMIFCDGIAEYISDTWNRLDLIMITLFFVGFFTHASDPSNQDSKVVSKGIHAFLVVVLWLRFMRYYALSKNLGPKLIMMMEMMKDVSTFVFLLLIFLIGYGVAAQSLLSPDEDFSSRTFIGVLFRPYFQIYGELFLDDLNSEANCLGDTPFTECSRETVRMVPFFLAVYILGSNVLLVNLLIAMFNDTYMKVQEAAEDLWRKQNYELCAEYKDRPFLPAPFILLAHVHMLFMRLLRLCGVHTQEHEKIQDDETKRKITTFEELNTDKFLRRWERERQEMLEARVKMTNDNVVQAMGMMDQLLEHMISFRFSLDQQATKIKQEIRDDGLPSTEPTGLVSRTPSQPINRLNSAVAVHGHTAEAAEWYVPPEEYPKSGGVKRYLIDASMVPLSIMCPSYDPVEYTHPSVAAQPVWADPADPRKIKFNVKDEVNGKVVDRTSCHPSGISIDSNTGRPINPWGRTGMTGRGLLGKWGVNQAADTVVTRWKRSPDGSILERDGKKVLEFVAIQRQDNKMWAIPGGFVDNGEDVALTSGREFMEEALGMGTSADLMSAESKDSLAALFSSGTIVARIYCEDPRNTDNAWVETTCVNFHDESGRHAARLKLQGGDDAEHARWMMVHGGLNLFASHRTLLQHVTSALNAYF

[2] = biological target: T2, srTRPM2 (Salpingoeca rosetta, UniProt F2UB89, R275A); test: inside-out patch clamp, tsA201 cells, +[…] mV; type: biochemical; settings: Ca2+ with ADPR; MHR1/2 site; no activation; reduced expression level
T2 construct: gene PTSG_05449; full length; N-terminal TwinStrepII-His8-eGFP tag (thrombin-cleaved for enzyme assays and nanodiscs); expressed in tsA201 cells; homotetramer, GDN detergent or nanodisc
T2 sequence (F2UB89 entry or part of it R275A): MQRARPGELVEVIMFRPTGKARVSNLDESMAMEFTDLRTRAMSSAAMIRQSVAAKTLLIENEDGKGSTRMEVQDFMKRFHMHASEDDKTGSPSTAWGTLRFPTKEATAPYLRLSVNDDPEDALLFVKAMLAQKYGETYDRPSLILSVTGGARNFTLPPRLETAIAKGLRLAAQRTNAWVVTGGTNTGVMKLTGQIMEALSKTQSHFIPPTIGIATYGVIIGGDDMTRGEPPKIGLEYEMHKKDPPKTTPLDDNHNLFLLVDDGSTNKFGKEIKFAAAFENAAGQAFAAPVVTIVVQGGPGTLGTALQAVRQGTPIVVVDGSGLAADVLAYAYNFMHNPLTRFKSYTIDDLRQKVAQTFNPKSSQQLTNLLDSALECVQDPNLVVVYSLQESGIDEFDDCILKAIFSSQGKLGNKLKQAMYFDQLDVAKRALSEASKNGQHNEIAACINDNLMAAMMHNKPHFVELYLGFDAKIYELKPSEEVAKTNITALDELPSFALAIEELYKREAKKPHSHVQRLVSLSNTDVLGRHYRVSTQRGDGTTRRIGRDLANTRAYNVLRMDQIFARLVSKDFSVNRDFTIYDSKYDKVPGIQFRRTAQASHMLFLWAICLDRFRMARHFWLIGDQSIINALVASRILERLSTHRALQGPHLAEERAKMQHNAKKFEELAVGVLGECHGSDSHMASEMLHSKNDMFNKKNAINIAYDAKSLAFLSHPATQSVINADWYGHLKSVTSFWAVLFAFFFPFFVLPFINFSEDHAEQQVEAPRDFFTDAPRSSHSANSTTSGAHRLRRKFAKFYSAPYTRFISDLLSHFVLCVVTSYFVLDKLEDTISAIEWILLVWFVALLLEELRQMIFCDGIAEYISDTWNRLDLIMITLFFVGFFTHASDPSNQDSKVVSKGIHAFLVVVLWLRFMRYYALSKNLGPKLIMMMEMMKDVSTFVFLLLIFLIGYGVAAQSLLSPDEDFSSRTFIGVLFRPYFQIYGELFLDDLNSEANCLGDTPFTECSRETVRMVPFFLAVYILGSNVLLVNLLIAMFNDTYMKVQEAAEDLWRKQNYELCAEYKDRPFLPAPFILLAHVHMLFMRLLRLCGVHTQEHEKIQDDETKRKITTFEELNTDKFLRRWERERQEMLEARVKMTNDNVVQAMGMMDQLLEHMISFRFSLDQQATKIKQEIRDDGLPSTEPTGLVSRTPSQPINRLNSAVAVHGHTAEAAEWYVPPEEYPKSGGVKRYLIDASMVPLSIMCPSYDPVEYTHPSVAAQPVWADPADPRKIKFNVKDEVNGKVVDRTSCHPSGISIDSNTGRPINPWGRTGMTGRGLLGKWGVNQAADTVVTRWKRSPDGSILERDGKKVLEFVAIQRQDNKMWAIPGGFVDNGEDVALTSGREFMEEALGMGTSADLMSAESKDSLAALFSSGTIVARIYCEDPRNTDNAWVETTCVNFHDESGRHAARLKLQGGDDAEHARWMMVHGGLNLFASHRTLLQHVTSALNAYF

[3] = biological target: T3, srTRPM2 (Salpingoeca rosetta, UniProt F2UB89, F268A); test: inside-out patch clamp, tsA201 cells, +[…] mV; type: biochemical; settings: Ca2+ with ADPR; MHR1/2 site; no activation
T3 construct: gene PTSG_05449; full length; N-terminal TwinStrepII-His8-eGFP tag (thrombin-cleaved for enzyme assays and nanodiscs); expressed in tsA201 cells; homotetramer, GDN detergent or nanodisc
T3 sequence (F2UB89 entry or part of it F268A): as the sequence (F2UB89 entry or part of it R275A) above, with F268A, A275R counted along it

[4] = biological target: T1, srTRPM2; test: HPLC fluorescence of etheno-AMP, Michaelis-Menten fit; type: biochemical; settings: 10 mM MgCl2 final, TBS-GDN, 25 °C; all buckle helix residues mutated to alanine, positions not given
[5] = biological target: T4, srNUDT9-H (isolated domain) (Salpingoeca rosetta, UniProt F2UB89); test: as above; type: biochemical; settings: 10 mM MgCl2 final, TBS-GDN, 25 °C
T4 construct: gene PTSG_05449; TwinStrepII-His8-eGFP tag, TEV-cleaved; expressed in tsA201 cells; monomeric
T4 sequence (F2UB89 entry or part of it): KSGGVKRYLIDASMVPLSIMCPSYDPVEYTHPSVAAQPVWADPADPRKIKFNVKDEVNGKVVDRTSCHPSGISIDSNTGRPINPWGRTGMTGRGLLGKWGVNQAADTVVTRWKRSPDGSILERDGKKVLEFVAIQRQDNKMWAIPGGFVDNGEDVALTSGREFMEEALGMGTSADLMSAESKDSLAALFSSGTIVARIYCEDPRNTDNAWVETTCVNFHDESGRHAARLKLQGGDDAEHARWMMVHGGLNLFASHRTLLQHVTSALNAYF

[6] = biological target: Salpingoeca rosetta TRPM2 chanzyme, wild type, full length (Salpingoeca rosetta); test: cryo-EM structure; purified protein in GDN or nanodisc with CaCl2–ADPR (1:1 mM), MgCl2–AMP–R5P (10:1:1 mM) or MgCl2–ADPR (10:1 mM; 5 s, 10 s or 4 min); fully ligand-bound states; NUDT9-H layer tetramerised via the buckle helix
[7] = biological target: Salpingoeca rosetta TRPM2 chanzyme, wild type, full length (Salpingoeca rosetta); test: cryo-EM structure; purified protein with EDTA (1 mM), CaCl2 (1 mM), MgCl2 (10 mM) or EDTA–ADPR (1:1 mM), 30 min; apo or partially ligand-bound states; C4 symmetry; NUDT9-H domains flexible, not tetramerised
[8] = biological target: srTRPM2–E1114A (Salpingoeca rosetta); test: cryo-EM structure; purified protein in GDN or nanodisc with CaCl2–ADPR (1:1 mM), MgCl2–AMP–R5P (10:1:1 mM) or MgCl2–ADPR (10:1 mM; 5 s, 10 s or 4 min); fully ligand-bound states; NUDT9-H layer tetramerised via the buckle helix
[9] = biological target: srTRPM2–ΔNUDT9-H (Salpingoeca rosetta) (UniProt F2UB89); test: as above
[10] = biological target: srTRPM2–ΔNUDT9-H (Salpingoeca rosetta) (UniProt F2UB89); test: cryo-EM structure; purified protein with EDTA (1 mM), CaCl2 (1 mM), MgCl2 (10 mM) or EDTA–ADPR (1:1 mM), 30 min; apo or partially ligand-bound states; C4 symmetry; NUDT9-H domains flexible, not tetramerised

Nc1ncnc2c1ncn2[C@@H]1O[C@H](COP(=O)(O)OP(=O)(O)OC[C@H]2OC(O)[C@H](O)[C@@H]2O)[C@@H](O)[C@H]1O (stereo partly shown) [ADPR]
KM [1]: srTRPM2 lacking the buckle helix (ΔBH) | inside-out patch clamp, tsA201 cells, +60 mV [2]: Replacement of either of these residues with alanine rendered srTRPM2 insensitive to ADPR | inside-out patch clamp, tsA201 cells, +60 mV [3]: Replacement of either of these residues with alanine rendered srTRPM2 insensitive to ADPR | KM [4]: srTRPM2 with the buckle helix residues replaced by alanine (BH2A) | KM [5]: representing the rate of ADPR hydrolysis by the isolated srNUDT9-H domain

Salpingoeca rosetta TRPM2 chanzyme, wild type, full length (natural protein)
stoichiometry N [6]: 4 | stoichiometry N [7]: 4

srTRPM2–E1114A (natural protein)
stoichiometry N [8]: 4

srTRPM2–ΔNUDT9-H (from UniProt F2UB89 1-1214) (domain or fragment)
stoichiometry N [9]: 4 | stoichiometry N [10]: 4
